Test results from patent US9650395B2, “Antibacterial compounds and methods for use” (PTC Therapeutics, Inc., priority 2011, dated 2017).
In brackets after ≈: the same amount, converted by molar mass. Where two headings read alike, the source gives them in different places.

Tests used:
[1] = system: Haemophilus influenzae (H. influenzae) 49247; assay: Antibacterial activity, MIC, H. influenzae 49247; type: cell-based; details: Haemophilus influenzae; H. influenzae 49247; read-out: MIC 49247
Source text: (§1) The antibacterial activity from a microbroth dilution method may be presented as the minimum inhibitory concentration (MIC in […]). The MIC value is the lowest concentration of a drug which prevents macroscopically visible bacterial growth under test conditions.
Antibacterial activity of test compounds against the Gram-negative bacteria Haemophilus influenzae (H. influenzae) 49247, Moraxella catarrhalis (M. catarrhalis) 25238 and Neisseria meningitidis (N. meningitidis) 13090 is shown in Table 6.

[2] = system: Gram-positive Staphylococcus aureus (S. aureus) 29213; assay: Antibacterial activity, microbroth dilution MIC, S. aureus 29213; type: cell-based; details: Staphylococcus aureus; S. aureus 29213, microbroth dilution; read-out: MIC, 29213
[3] = system: control Gram-negative E. coli 25922 strain; assay: Antibacterial activity, microbroth dilution MIC, E. coli 25922; type: cell-based, Escherichia coli; details: Escherichia coli; E. coli 25922, microbroth dilution; read-out: MIC, 25922
[4] = system: Moraxella catarrhalis (M. catarrhalis) 25238; assay: Antibacterial activity, MIC, M. catarrhalis 25238; type: cell-based; details: Moraxella catarrhalis, M. catarrhalis 25238; read-out: MIC 25238
[5] = system: super sensitive Gram-negative Escherichia coli (E. coli) BAS849; assay: Antibacterial activity, microbroth dilution MIC, E. coli BAS849; type: cell-based; details: Escherichia coli, read-out: MIC, BAS849
[6] = system: Neisseria meningitidis (N. meningitidis) 13090; assay: Antibacterial activity, MIC, N. meningitidis 13090; type: cell-based; details: Neisseria meningitidis; N. meningitidis 13090; read-out: MIC 13090
[7] = system: E. coli ELZ4000 (MDR clinical isolate); assay: Antibacterial activity, MIC, MDR E. coli ELZ4000; type: cell-based, Escherichia coli; details: Escherichia coli; E. coli ELZ4000, MDR clinical isolate; read-out: MIC ELZ4000
[8] = system: quinolone resistant E. coli LZ3111; assay: Antibacterial activity, MIC, quinolone resistant E. coli LZ3111; type: cell-based, Escherichia coli; details: Escherichia coli, read-out: MIC, LZ3111
Source text: as §1
Mutations in these regions are known to confer a high level resistance to the quinolone class of antibiotics.

[9] = system: E. coli ELZ4251 (MDR clinical isolate); assay: Antibacterial activity, MIC, MDR E. coli ELZ4251; type: cell-based, Escherichia coli; details: Escherichia coli, E. coli ELZ4251, MDR clinical isolate; read-out: MIC ELZ4251
[10] = E. coli BAS849, microbroth dilution

| SMILES | MIC [1] [µg/mL] | MIC [2] [µg/mL] | MIC [3] [µg/mL] | MIC [4] [µg/mL] | MIC [5, 10] [µg/mL] | MIC [6] [µg/mL] | MIC [7] [µg/mL] | MIC [8] [µg/mL] | MIC [9] [µg/mL] | MIC [5] [µg/mL] |
| --- | --- | --- | --- | --- | --- | --- | --- | --- | --- | --- |
| CCc1c(-c2ccc(N(CC)CC)cc2)[nH]c(=O)c(C(=O)O)c1O [Cpd 98, 6-[4-(diethylamino)phenyl]-5-ethyl-4-hydroxy-2-oxo-1,2-dihydropyridine-3-carboxylic acid] | 1 to 3.5 (≈ 3.03 to 10.6 µM) | 3.5 to 12.5 (≈ 10.6 to 37.8 µM) | 12.5 to 150 (≈ 37.8 to 454 µM) | 3.5 to 12.5 (≈ 10.6 to 37.8 µM) | < 1 | < 1 |  |  |  |  |
| CN(C)c1ccc(-c2[nH]c(=O)c(C(=O)O)cc2CN)cc1.Cl [Cpd 22, 5-(aminomethyl)-6-[4-(dimethylamino)phenyl]-2-oxo-1,2-dihydropyridine-3-carboxylic acid hydrochloride] | 12.5 to 150 | 12.5 to 150 | 12.5 to 150 | 12.5 to 150 | 12.5 to 150 | 3.5 to 12.5 |  |  |  |  |
| CCc1c(-c2ccc(N(C)CCO)cc2)[nH]c(=O)c(C(=O)O)c1O [Cpd 18, 5-ethyl-4-hydroxy-6-{4-[(2-hydroxyethyl)(methyl)amino]phenyl}-2-oxo-1,2-dihydropyridine-3-carboxylic acid] | < 1 | 3.5 to 12.5 (≈ 10.5 to 37.6 µM) | 3.5 to 12.5 (≈ 10.5 to 37.6 µM) | < 1 | < 1 |  | 12.5 to 150 (≈ 37.6 to 451 µM) | 12.5 to 150 (≈ 37.6 to 451 µM) | 12.5 to 150 (≈ 37.6 to 451 µM) |  |
| CCc1cc(C(=O)O)c(=O)[nH]c1-c1ccc(N(C)CCOC2CCCCO2)cc1 (centres unmarked) [Cpd 16, 5-ethyl-6-(4-{methyl[2-(tetrahydro-2H-pyran-2-yloxy)ethyl]amino}phenyl)-2-oxo-1,2-dihydropyridine-3-carboxylic acid] | < 1 | 12.5 to 150 (≈ 31.2 to 375 µM) | 3.5 to 12.5 (≈ 8.74 to 31.2 µM) | < 1 | < 1 |  | 12.5 to 150 (≈ 31.2 to 375 µM) | 12.5 to 150 (≈ 31.2 to 375 µM) | 12.5 to 150 (≈ 31.2 to 375 µM) |  |
| CCc1c(-c2ccc(N3C[C@H]4CN(C)C[C@H]4C3)cc2)[nH]c(=O)c(C(=O)O)c1O.Cl [Cpd 273, 5-ethyl-4-hydroxy-6-{4-[(3aR,6aS)-5-methylhexahydropyrrolo[3,4-c]pyrrol-2(1H)-yl]phenyl}-2-oxo-1,2-dihydropyridine-3-carboxylic acid hydrochloride] |  | 12.5 to 150 | 1 to 3.5 | 1 to 3.5 | < 1 | 1 to 3.5 | 12.5 to 150 | 12.5 to 150 | 12.5 to 150 |  |
| CN(C)c1ccc(-c2[nH]c(=O)c(C(=O)O)cc2Cc2ccccc2)cc1 [Cpd 1, 5-benzyl-6-[4-(dimethylamino)phenyl]-2-oxo-1,2-dihydropyridine-3-carboxylic acid] | < 1 | 12.5 to 150 (≈ 35.9 to 431 µM) |  | 3.5 to 12.5 (≈ 10 to 35.9 µM) | 12.5 to 150 (≈ 35.9 to 431 µM) | 3.5 to 12.5 (≈ 10 to 35.9 µM) |  |  |  |  |
| CCc1cc(C(=O)O)c(=O)[nH]c1-c1ccc(N(C)CC)cc1 [Cpd 160, 5-ethyl-6-{4-[ethyl(methyl)amino]phenyl}-2-oxo-1,2-dihydropyridine-3-carboxylic acid] | < 1 | 12.5 to 150 (≈ 41.6 to 499 µM) | 1 to 3.5 (≈ 3.33 to 11.7 µM) | < 1 | < 1 |  | 12.5 to 150 (≈ 41.6 to 499 µM) | 12.5 to 150 (≈ 41.6 to 499 µM) | 12.5 to 150 (≈ 41.6 to 499 µM) |  |
| CCc1cc(C(=O)O)c(=O)[nH]c1-c1ccc(N2CCC(CNCc3ccccc3)C2)cc1.Cl (centres unmarked) [Cpd 182, 6-(4-{3-[(benzylamino)methyl]pyrrolidin-1-yl}phenyl)-5-ethyl-2-oxo-1,2-dihydropyridine-3-carboxylic acid hydrochloride] |  | 12.5 to 150 | < 1 | < 1 | < 1 | < 1 | 12.5 to 150 | 12.5 to 150 | 12.5 to 150 |  |
| CCc1cc(C(=O)O)c(=O)[nH]c1-c1ccc(N2CCC(CN(C)C)C2)cc1.O=C(O)C(F)(F)F (centres unmarked) [Cpd 185, 6-(4-{3-[(dimethylamino)methyl]pyrrolidin-1-yl}phenyl)-5-ethyl-2-oxo-1,2-dihydropyridine-3-carboxylic acid trifluoroacetate] |  | 12.5 to 150 | 3.5 to 12.5 | 1 to 3.5 |  | < 1 | 12.5 to 150 | 12.5 to 150 | 12.5 to 150 | < 1 |
